Test results: article PMC9925432, “Thioquinoline derivatives conjugated to thiosemicarbazide as potent tyrosinase inhibitors with anti-melanogenesis properties” (Scientific Reports, 2023)
Read-outs that look alike come from different tables or passages of the source.

Key:
[1] = target: T1, Mushroom tyrosinase (EC 1.14.18.1) (Agaricus bisporus, UniProt C7FF04); test: Tyrosinase inhibitory assay (colorimetric, diphenolase activity, L-Dopa); type: biochemical; conditions: for IC50: L-Dopa as substrate, means ± RSD of 3 independent experiments
T1 construct: purchased Sigma Chemical Co
T1 sequence (C7FF04 1-392 limits assumed): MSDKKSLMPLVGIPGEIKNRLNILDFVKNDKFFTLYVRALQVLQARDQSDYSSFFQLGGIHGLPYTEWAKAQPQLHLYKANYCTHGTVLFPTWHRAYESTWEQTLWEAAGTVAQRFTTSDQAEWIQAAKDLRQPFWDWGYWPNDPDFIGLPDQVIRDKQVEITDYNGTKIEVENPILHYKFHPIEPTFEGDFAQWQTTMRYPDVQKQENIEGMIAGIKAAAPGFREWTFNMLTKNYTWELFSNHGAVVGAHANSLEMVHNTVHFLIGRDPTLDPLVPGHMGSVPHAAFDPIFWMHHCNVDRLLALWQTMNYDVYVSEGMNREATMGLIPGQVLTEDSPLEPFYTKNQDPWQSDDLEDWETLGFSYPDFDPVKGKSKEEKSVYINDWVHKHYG
Protocol: Mushroom tyrosinase (EC 1.14.18.1) (Sigma Chemical Co.) was assayed using L-Dopa as the substrate as reported in our previous studies with some modifications[30]–[32]. The enzyme diphenolase activity was monitored spectrophotometrically by observing dopachrome formation at 490 nm. All the test samples were first dissolved in DMSO at 10 mM and diluted to the required concentrations. Initially, in a 96-well microplate, 10 µl of test samples were added to 160 µl of 50 mM phosphate buffer (pH = 6.8) and then 10 µl tyrosinase (500 U mL^−1) was added. After the mixture was pre-incubated at 28 °C for 20 min, 20 µl of L-Dopa solution (7 mM) was added to the mixture. After 10 min incubation absorbance of samples was measured. DMSO without test compounds was used as the control, and kojic acid was used as a positive control. Each assay was conducted as three separate replicates. The inhibitory activity of the tested compounds was expressed as the concentration that inhibited 50% of the enzyme activity (IC50). […]

[2] = MTT assay for cell viability, HEK 293; type: cell-based; conditions: human, HEK 293 cells, 48 h, MTT, mean ± S.E.M.; for viability at 48 h, 16 µM: HEK 293, 16 µM; for viability at 48 h, 32 µM: HEK 293, 32 µM; for viability at 48 h, 64 µM: HEK 293, 64 µM
Protocol: (§1) The cytotoxic activity of all derivatives against the HEK 293 cell line and 10g against A375 (at a density of 5 × 10^3 cells/ml) using 3-(4,5-dimethylthiazol-2-yl)-2,5- diphenyltetrazolium bromide (MTT) assay were performed. Cells were grown at 37 °C in the presence of CO2 5% in DMEM (Gibco BRL, Grand Island, NY, USA), 10% fetal bovine serum (FBS, Gibco BRL), and penicillin/streptomycin (100 IU/mL and 100 µg/mL, respectively). Next cells were seeded in a 96-well plate and incubated at 37 ^∘C with derivatives at different concentrations for 48 h. Following the treatment, cells were incubated with MTT (0.5 mg/ml) at 37 ^∘C for 3 h. The MTT-containing medium was then removed, and 100 μl of DMSO was added to each well, mixed thoroughly with a 10 min shake to dissolve formazan crystals. The absorbance of each well was measured at 540 nm[33].

[3] = test system: HEK 293 cell line; test: MTT assay for cell viability, HEK 293; type: cell-based; conditions: for Cell viability (%): HEK 293, 32 µM, 48 h, MTT, mean ± S.E.M., 32 µM
Protocol: as §1

[4] = target: mushroom tyrosinase; conditions: cited from earlier work

Compound	IC50 [1]	melting point	viability at 48 h, 16 µM [2]	viability at 48 h, 32 µM [2]	viability at 48 h, 64 µM [2]	Cell viability (%) [3]	fold improvement in the potency compared to 10a ([1]; ratio of tyrosinase IC50 values)	IC50 ([3]; Homo sapiens, HEK293, HEK 293, MTT, read-out: IC50 (positive control))	IC50 ([4]; L-Dopa as substrate)	IC50 ([4]; L-tyrosine as substrate)	IC50 ([4]; tyrosinase)
NC(=S)N/N=C/c1cc2ccccc2nc1SCC(=O)Nc1ccc([N+](=O)[O-])cc1 [Compound 10f, (E)-2-((3-((2-carbamothioylhydrazineylidene)methyl)quinolin-2-yl)thio)-N-(4-nitrophenyl)acetamide]	39.8 µM	180 to 182 °C	97.67 ± 0.55%	> 85%	80 ± 2.05%	88.12 ± 4.05%					
NC(=S)N/N=C/c1cc2ccccc2nc1SCC(=O)NCc1ccccc1 [Compound 10k, (E)-N-benzyl-2-((3-((2-carbamothioylhydrazono)methyl)quinolin-2-yl)thio)acetamide]	62 µM	183 to 185 °C	77.3 ± 2.55%	65.4 ± 3.49%	51.1 ± 1.06%		around 2.5 fold				
NC(=S)N/N=C/c1cc2ccccc2nc1SCC(=O)NCc1ccc(F)cc1 [Compound 10m, (E)-2-((3-((2-carbamothioylhydrazono)methyl)quinolin-2-yl)thio)-N-(4-fluorobenzyl)acetamide]	53.3 µM	186 to 188 °C	95.5 ± 2.97%	> 85%	71.2 ± 5.42%	86.44 ± 1.17%					
COc1cccc2c1C(=O)c1c(O)c3c(c(O)c1C2=O)C[C@@](O)(C(=O)CO)C[C@@H]3O[C@H]1C[C@H](N)[C@H](O)[C@H](C)O1 [Doxorubicin, reference compound]								1.3 µM			
NC(=S)N/N=C/c1ccc(OCc2cn(CC(=O)NCc3ccccc3)nn2)cc1 [G]									0.17 µM	0.11 µM	
OC[C@H]1O[C@@H](Oc2ccc(O)cc2)[C@H](O)[C@@H](O)[C@@H]1O [arbutin]											180 µM

The next lines start with results.

IC50 [1]	melting point	Compound	viability at 48 h, 16 µM [2]	viability at 48 h, 32 µM [2]	viability at 48 h, 64 µM [2]	Cell viability (%) [3]	fold improvement in the potency compared to 10a ([1]; ratio of tyrosinase IC50 values)	IC50 ([3]; Homo sapiens, HEK293, HEK 293, MTT, read-out: IC50 (positive control))	IC50 ([4]; L-Dopa as substrate)	IC50 ([4]; L-tyrosine as substrate)	IC50 ([4]; tyrosinase)
155 µM	180 to 182 °C	NC(=S)N/N=C/c1cc2ccccc2nc1SCC(=O)Nc1ccccc1 [Compound 10a, (E)-2-((3-((2-carbamothioylhydrazineylidene)methyl)quinolin-2-yl)thio)-N-phenylacetamide]	90.19 ± 0.89%	72.2 ± 2.13%	65.8 ± 1.99%						
≥ 200 µM	180 to 185 °C	Cc1ccc(NC(=O)CSc2nc3ccccc3cc2/C=N/NC(N)=S)cc1 [Compound 10b, (E)-2-((3-((2-carbamothioylhydrazono)methyl)quinolin-2-yl)thio)-N-(p-tolyl)acetamide]	96.2 ± 2.58%	81.5 ± 2.91%							
85.3 µM	178 to 180 °C	CCc1ccc(NC(=O)CSc2nc3ccccc3cc2/C=N/NC(N)=S)cc1 [Compound 10c, (E)-2-((3-((2-carbamothioylhydrazono)methyl)quinolin-2-yl)thio)-N-(4-ethylphenyl)acetamide]	82.55 ± 0.5%	69.3 ± 1.81%	58.3 ± 1.03%						
101 µM	185 to 187 °C	Cc1cccc(NC(=O)CSc2nc3ccccc3cc2/C=N/NC(N)=S)c1C [Compound 10d, (E)-2-((3-((2-carbamothioylhydrazono)methyl)quinolin-2-yl)thio)-N-(2,3-dimethylphenyl)acetamide]	87.52 ± 0.65%	79.12 ± 0.62%	71.4 ± 2.97%						
47.4 µM	191 to 193 °C	COc1ccc(NC(=O)CSc2nc3ccccc3cc2/C=N/NC(N)=S)cc1 [Compound 10e, (E)-2-((3-((2-carbamothioylhydrazineylidene)methyl)quinolin-2-yl)thio)-N-(4-methoxyphenyl)acetamide]	85.6 ± 1.08%	71.2 ± 3.86%	62 ± 4.15%						
169 µM	188 to 190 °C	NC(=S)N/N=C/c1cc2ccccc2nc1SCC(=O)Nc1ccc(Cl)cc1Cl [Compound 10h, (E)-2-((3-((2-carbamothioylhydrazono)methyl)quinolin-2-yl)thio)-N-(2,4-dichlorophenyl)acetamide]	96.9 ± 1.59%	78.7 ± 2.19%	67.9 ± 3.21%						
≥ 200 µM		NC(=S)N/N=C/c1cc2ccccc2nc1SCC(=O)Nc1ccccc1Br [Compound 10j, (E)-N-(2-bromophenyl)-2-((3-((2-carbamothioylhydrazono)methyl)quinolin-2-yl)thio)acetamide]	91.2 ± 4.35%	> 85%	79.9 ± 3.16%	88.65 ± 2.31%					
78.5 µM	180 to 182 °C	Cc1ccc(CNC(=O)CSc2nc3ccccc3cc2/C=N/NC(N)=S)cc1 [Compound 10l, (E)-2-((3-((2-carbamothioylhydrazineylidene)methyl)quinolin-2-yl)thio)-N-(4-methylbenzyl)acetamide]	75.1 ± 1.99%	62.6 ± 1.58%	50 ± 0.88%						
